According to patent publication US10611740B2, “Aryl dihydro-2H-benzo[b][1,4]oxazine sulfonamide and related compounds for use as agonists of RORγ and the treatment of disease” (Lycera Corporation, priority 2015, dated 2020):

Key:
[1] = molecular target: T1, RORγ-LBD (Homo sapiens, UniProt P51449); assay: RORγ-Ligand Binding Domain (LBD) TR-FRET Assay; assay type: biochemical;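 on TR-FRET Assay Max Response: 665/615 nm ratio relative to signal without ursolic acid or compound set at 100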
T1 construct: made in house; host or cells: SF9 cells (baculovirus)
T1 sequence (P51449 269-508 limits assumed): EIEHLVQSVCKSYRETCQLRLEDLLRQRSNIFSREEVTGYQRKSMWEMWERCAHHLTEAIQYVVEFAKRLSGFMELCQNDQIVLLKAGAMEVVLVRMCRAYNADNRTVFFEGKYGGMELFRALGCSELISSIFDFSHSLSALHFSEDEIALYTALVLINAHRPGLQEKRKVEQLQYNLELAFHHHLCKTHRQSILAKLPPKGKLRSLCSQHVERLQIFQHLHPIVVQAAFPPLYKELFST
Method in brief: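 This TR-FRET coactivator assay pairs baculovirus-expressed His-RORγ-LBD (~3 nM final) with biotin-SRC1 LXXLL peptide at 200 nM final in pH 7.0 Tris/KCl/EDTA/DTT/BSA buffer.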

[2] = molecular target: T2, Gal4-RORγ-LBD (Homo sapiens, UniProt P51449); assay: Gal4-RORγ Luciferase Reporter Assay in HEK-293T Cells; assay type: cell-based; conditions: HEK-293 cells
T2 construct: expressed in transfected cells; host or cells: HEK-293 cells (pcDNA3.1neo plasmid)
T2 sequence (P51449 269-508 limits assumed): T1 sequence (P51449 269-508 limits assumed)
Method in brief: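 Luminescence read-out (One-Glo, 10 min RT) after overnight compound exposure at 37 °C in HEK-293 cells carrying Gal4-RORγ-LBD plus a Gal4-luciferase reporter, in the presence of 2 μM ursolic acid. Max Response is the upper plateau from a 4-parameter logistic fit, normalized to untreated signal = 100.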

[3] = luciferase reporter, with 2 μM ursolic acid

EC50 [1] [nM] | EC50 [2, 3] [nM] | EC50 ([2]; 2 μM ursolic acid) [nM] | SMILES | TR-FRET Assay Max Response [1] | Gal4-RORγ Assay Max Response [2, 3] | Gal4-RORγ Assay Max Response ([2]; 2 μM ursolic acid)
< 500 | 500 to 5000 |  | COc1cncc(-c2ccc3c(c2)N(S(=O)(=O)c2cccc(C(F)(F)F)c2)C[C@H](CCC(=O)O)O3)n1 [Compound 4Y, (S)-3-(6-(6-methoxypyrazin-2-yl)-4-((3-(trifluoromethyl)-phenyl)sulfonyl)-3,4-dihydro-2H-benzo[b][1,4]oxazin-2-yl)propanoic acid] | **** (The symbol “****” indicates a value greater than 200) | * (The symbol “*” indicates a value in the range of 25 to 90) | 
< 500 |  | < 500 | O=C(O)C1(C[C@H]2CN(S(=O)(=O)c3cccc(C(F)(F)F)c3)c3cc(-c4cccc(C(F)(F)F)c4)ccc3O2)CCOCC1 [Compound 78H, (S)-4-((6-(3-(trifluoromethyl)-phenyl)-4-((3-(trifluoromethyl)-phenyl)sulfonyl)-3,4-dihydro-2H-benzo[b][1,4]oxazin-2-yl)methyl)tetrahydro-2H-pyran-4-carboxylic acid] | ** (The symbol “**” indicates a value in the range of greater than 90 to 150) |  | * (The symbol “*” indicates a value in the range of 25 to 90)
< 500 |  | < 500 | O=C(O)C1(C[C@H]2CN(S(=O)(=O)c3cccc(C(F)(F)F)c3)c3cc(-c4cc(F)cc(OC(F)F)c4)ccc3O2)CCOCC1 [Compound 58, (S)-4-((6-(3-(difluoromethoxy)-5-fluorophenyl)-4-((3-(trifluoromethyl)phenyl)sulfonyl)-3,4-dihydro-2H-benzo[b][1,4]oxazin-2-yl)methyl)tetrahydro-2H-pyran-4-carboxylic acid] | *** (The symbol “***” indicates a value in the range of greater than 150 to 200) |  | ** (The symbol “**” indicates a value in the range of greater than 90 to 150)
< 500 | < 500 |  | O=C(O)CC[C@H]1CN(S(=O)(=O)c2cccc(C(F)(F)F)c2)c2cc(-c3cc(Cl)ccc3Cl)ccc2O1 [Compound 2AM, (S)-3-(6-(2,5-dichlorophenyl)-4-((3-(trifluoromethyl)phenyl)-sulfonyl)-3,4-dihydro-2H-benzo[b][1,4]oxazin-2-yl)propanoic acid] |  |  | 
< 500 | 500 to 5000 |  | CC(C)(CO)C(=O)NC[C@H]1CN(S(=O)(=O)c2cccc(C(F)(F)F)c2)c2cc(-c3cccc(C(F)(F)F)n3)ccc2O1 [Compound 30BI, (S)-3-hydroxy-2,2-dimethyl-N-((4-((3-(trifluoromethyl)-phenyl)sulfonyl)-6-(6-(trifluoromethyl)pyridin-2-yl)-3,4-dihydro-2H-benzo[b][1,4]-oxazin-2-yl)methyl)-propanamide] | *** (The symbol “***” indicates a value in the range of greater than 150 to 200) | * (The symbol “*” indicates a value in the range of 25 to 90) | 
< 500 | < 500 |  | CC(C)(C[C@H]1CN(S(=O)(=O)c2cccc(C(F)(F)F)c2)c2cc(-c3cccc(OC(F)(F)F)c3)ccc2O1)C(=O)O [Compound 32F, (S)-2,2-dimethyl-3-(6-(3-(trifluoromethoxy)phenyl)-4-((3-(trifluoromethyl)phenyl)sulfonyl)-3,4-dihydro-2H-benzo[b][1,4]oxazin-2-yl)propanoic acid] | **** (The symbol “****” indicates a value greater than 200) | ** (The symbol “**” indicates a value in the range of greater than 90 to 150) | 
< 500 | < 500 |  | O=C(O)CC[C@H]1CN(S(=O)(=O)c2cccc(C(F)(F)F)c2)c2cc(-c3cccc(C4CC4)c3)ccc2O1 [Compound 4R, (S)-3-(6-(3-cyclopropylphenyl)-4-((3-(trifluoromethyl)phenyl)-sulfonyl)-3,4-dihydro-2H-benzo[b][1,4]oxazin-2-yl)propanoic acid] | **** (The symbol “****” indicates a value greater than 200) | **** (The symbol “****” indicates a value greater than 200) | 
< 500 |  | < 500 | O=C(O)CC[C@H]1CN(S(=O)(=O)c2cccc(C(F)(F)F)c2)c2cc(-c3cc(F)cc(F)c3)cc(F)c2O1 [Compound 22K, (S)-3-(6-(3,5-difluorophenyl)-8-fluoro-4-((3-(trifluoromethyl)-phenyl)sulfonyl)-3,4-dihydro-2H-benzo[b][1,4]oxazin-2-yl)propanoic acid] | *** (The symbol “***” indicates a value in the range of greater than 150 to 200) |  | ** (The symbol “**” indicates a value in the range of greater than 90 to 150)
< 500 |  | < 500 | CC(=O)N1CC(C[C@H]2CN(S(=O)(=O)c3cccc(C(F)(F)F)c3)c3cc(-c4cc(F)ccc4F)ccc3O2)C1 [Compound 62, (S)-1-(3-((6-(2,5-difluorophenyl)-4-((3-(trifluoromethyl)phenyl)sulfonyl)-3,4-dihydro-2H-benzo[b][1,4]oxazin-2-yl)methyl)azetidin-1-yl)ethan-1-one] | ** (The symbol “**” indicates a value in the range of greater than 90 to 150) |  | ** (The symbol “**” indicates a value in the range of greater than 90 to 150)
< 500 |  | < 500 | O=C(O)C1(C[C@H]2CN(S(=O)(=O)c3cccc(C4CC4)c3)c3cc(-c4cc(F)cc(OC(F)F)c4)ccc3O2)COC1 [Compound 51F, (S)-3-((4-((3-cyclopropyl-phenyl)sulfonyl)-6-(3-(difluoro-methoxy)-5-fluorophenyl)-3,4-dihydro-2H-benzo[b][1,4]oxazin-2-yl)methyl)oxetane-3-carboxylic acid] | *** (The symbol “***” indicates a value in the range of greater than 150 to 200) |  | ** (The symbol “**” indicates a value in the range of greater than 90 to 150)
< 500 |  | 500 to 5000 | CC(=O)N[C@H](C)C(=O)NC[C@H]1CN(S(=O)(=O)c2cccc(C(F)(F)F)c2)c2cc(-c3cccc(F)c3Cl)ccc2O1 [Compound 30CJ, (R)-2-acetamido-N-(((S)-6-(2-chloro-3-fluorophenyl)-4-((3-(trifluoromethyl)phenyl)-sulfonyl)-3,4-dihydro-2H-benzo[b][1,4]oxazin-2-yl)methyl)propanamide] | ** (The symbol “**” indicates a value in the range of greater than 90 to 150) |  | * (The symbol “*” indicates a value in the range of 25 to 90)
< 500 |  | 500 to 5000 | NS(=O)(=O)CCC(=O)NC[C@H]1CN(S(=O)(=O)c2cccc(C(F)(F)F)c2)c2cc(-c3cc(F)cc(OC(F)F)c3)ccc2O1 [Compound 30DA, (S)-N-((6-(3-(difluoromethoxy)-5-fluorophenyl)-4-((3-(trifluoro-methyl)phenyl)sulfonyl)-3,4-dihydro-2H-benzo[b][1,4]-oxazin-2-yl)methyl)-3-sulfamoylpropanamide] | *** (The symbol “***” indicates a value in the range of greater than 150 to 200) |  | * (The symbol “*” indicates a value in the range of 25 to 90)
< 500 | < 500 |  | O=C(O)CC[C@H]1CN(S(=O)(=O)c2cccc(C(F)(F)F)c2)c2cc(-c3cccc(Cl)c3F)ccc2O1 [Compound 2R, (S)-3-(6-(3-chloro-2-fluorophenyl)-4-((3-(trifluoromethyl)phenyl)-sulfonyl)-3,4-dihydro-2H-benzo[b][1,4]oxazin-2-yl)propanoic acid] | **** (The symbol “****” indicates a value greater than 200) | *** (The symbol “***” indicates a value in the range of greater than 150 to 200) | 
< 500 |  | < 500 | CC(=O)c1ccc(F)c(-c2ccc3c(c2)N(S(=O)(=O)c2cccc(C(F)(F)F)c2)C[C@H](CC(C)(C)C(=O)O)O3)c1 [Compound 32AE, (S)-3-(6-(5-acetyl-2-fluoro-phenyl)-4-((3-(trifluoromethyl)-phenyl)sulfonyl)-3,4-dihydro-2H-benzo[b][1,4]oxazin-2-yl)-2,2-dimethylpropanoic acid] | *** (The symbol “***” indicates a value in the range of greater than 150 to 200) |  | * (The symbol “*” indicates a value in the range of 25 to 90)
< 500 |  | 500 to 5000 | C[C@@H](C[C@H]1CN(S(=O)(=O)c2cccc(C(F)(F)F)c2)c2cc(-c3cccc(Cl)c3F)ccc2O1)C(=O)O [Compound 46E, (S)-3-((S)-6-(3-chloro-2-fluoro-phenyl)-4-((3-(trifluoromethyl)-phenyl)sulfonyl)-3,4-dihydro-2H-benzo[b][1,4]oxazin-2-yl)-2-methylpropanoic acid] | ** (The symbol “**” indicates a value in the range of greater than 90 to 150) |  | * (The symbol “*” indicates a value in the range of 25 to 90)
